In ChEMBL document CHEMBL1275577, “Study of the in vitro activities of rifaximin and comparator agents against 536 anaerobic intestinal bacteria from the perspective of potential utility in pathology involving bowel flora” (Antimicrob Agents Chemother, 2009):

Columns and labels:
[1] = tested on: Flavonifractor plautii; test: Antimicrobial activity against Clostridium orbiscindens by Wadsworth agar dilution method in presence of beta-lactamase inhibitor Sulbactam; type: functional
[2] = tested on: Eggerthella lenta; test: Antimicrobial activity against Eggerthella lenta by Wadsworth agar dilution method in presence of beta-lactamase inhibitor Sulbactam; type: functional
[3] = tested on: Clostridium cadaveris; test: Antimicrobial activity against Clostridium cadaveris by Wadsworth agar dilution method in presence of beta-lactamase inhibitor Sulbactam; type: functional
[4] = tested on: Bacteroides stercoris; test: Antimicrobial activity against Bacteroides stercoris by Wadsworth agar dilution method in presence of beta-lactamase inhibitor Sulbactam; type: functional
[5] = tested on: Clostridium spiroforme; test: Antimicrobial activity against Clostridium spiroforme by Wadsworth agar dilution method in presence of beta-lactamase inhibitor Sulbactam; type: functional; conditions: Thomasclavelia spiroformis
[6] = tested on: Bifidobacterium dentium; test: Antimicrobial activity against Bifidobacterium dentium by Wadsworth agar dilution method in presence of beta-lactamase inhibitor Sulbactam; type: functional
[7] = tested on: Clostridium subterminale; test: Antimicrobial activity against Clostridium subterminale by Wadsworth agar dilution method in presence of beta-lactamase inhibitor Sulbactam; type: functional
[8] = tested on: Ruminococcus torques; test: Antimicrobial activity against Ruminococcus torques by Wadsworth agar dilution method in presence of beta-lactamase inhibitor Sulbactam; type: functional; conditions: Mediterraneibacter torques
[9] = tested on: Clostridium glycolicum; test: Antimicrobial activity against Clostridium glycolicum by Wadsworth agar dilution method in presence of beta-lactamase inhibitor Sulbactam; type: functional; conditions: Terrisporobacter glycolicus
[10] = tested on: Bifidobacterium pseudolongum; test: Antimicrobial activity against Bifidobacterium pseudolongum by Wadsworth agar dilution method in presence of beta-lactamase inhibitor Sulbactam; type: functional
[11] = tested on: Ruminococcus obeum; test: Antimicrobial activity against Ruminococcus obeum by Wadsworth agar dilution method in presence of beta-lactamase inhibitor Sulbactam; type: functional; conditions: Blautia obeum
[12] = tested on: Blautia luti; test: Antimicrobial activity against Ruminococcus luti by Wadsworth agar dilution method in presence of beta-lactamase inhibitor Sulbactam; type: functional
[13] = tested on: Desulfovibrio vulgaris; test: Antimicrobial activity against Desulfovibrio vulgaris by Wadsworth agar dilution method in presence of beta-lactamase inhibitor Sulbactam; type: functional; conditions: Nitratidesulfovibrio vulgaris
[14] = tested on: Enterocloster clostridioformis; test: Antimicrobial activity against Clostridium clostridioforme by Wadsworth agar dilution method in presence of beta-lactamase inhibitor Sulbactam; type: functional
[15] = tested on: Bacteroides caccae; test: Antimicrobial activity against Bacteroides caccae by Wadsworth agar dilution method in presence of beta-lactamase inhibitor Sulbactam; type: functional
[16] = tested on: Holdemania filiformis; test: Antimicrobial activity against Holdemania filiformis by Wadsworth agar dilution method in presence of beta-lactamase inhibitor Sulbactam; type: functional
[17] = tested on: Bifidobacterium bifidum; test: Antimicrobial activity against Bifidobacterium bifidum by Wadsworth agar dilution method in presence of beta-lactamase inhibitor Sulbactam; type: functional
[18] = tested on: Bifidobacterium breve; test: Antimicrobial activity against Bifidobacterium breve by Wadsworth agar dilution method in presence of beta-lactamase inhibitor Sulbactam; type: functional
[19] = tested on: Bacteroides uniformis; test: Antimicrobial activity against Bacteroides uniformis by Wadsworth agar dilution method in presence of beta-lactamase inhibitor Sulbactam; type: functional
[20] = tested on: Clostridium lactatifermentans; test: Antimicrobial activity against Clostridium lactatifermentans by Wadsworth agar dilution method in presence of beta-lactamase inhibitor Sulbactam; type: functional; conditions: Anaerotignum lactatifermentans
[21] = tested on: Porphyromonas somerae; test: Antimicrobial activity against Porphyromonas somerae by Wadsworth agar dilution method in presence of beta-lactamase inhibitor Sulbactam; type: functional
[22] = tested on: Ruminococcus lactaris; test: Antimicrobial activity against Ruminococcus lactaris by Wadsworth agar dilution method in presence of beta-lactamase inhibitor Sulbactam; type: functional
[23] = tested on: Ruminococcus flavefaciens; test: Antimicrobial activity against Ruminococcus flavefaciens by Wadsworth agar dilution method in presence of beta-lactamase inhibitor Sulbactam; type: functional
[24] = tested on: Fusobacterium varium; test: Antimicrobial activity against Fusobacterium varium by Wadsworth agar dilution method in presence of beta-lactamase inhibitor Sulbactam; type: functional
[25] = tested on: Clostridium bolteae; test: Antimicrobial activity against Clostridium bolteae by Wadsworth agar dilution method in presence of beta-lactamase inhibitor Sulbactam; type: functional; conditions: Enterocloster bolteae
[26] = tested on: Actinomyces viscosus; test: Antimicrobial activity against Actinomyces viscosus by Wadsworth agar dilution method in presence of beta-lactamase inhibitor Sulbactam; type: functional
[27] = tested on: Clostridium symbiosum; test: Antimicrobial activity against Clostridium symbiosum by Wadsworth agar dilution method in presence of beta-lactamase inhibitor Sulbactam; type: functional
[28] = tested on: Propionibacterium avidum; test: Antimicrobial activity against Propionibacterium avidum by Wadsworth agar dilution method in presence of beta-lactamase inhibitor Sulbactam; type: functional; conditions: Cutibacterium avidum
[29] = tested on: Ruminococcus gnavus; test: Antimicrobial activity against Ruminococcus gnavus by Wadsworth agar dilution method in presence of beta-lactamase inhibitor Sulbactam; type: functional; conditions: Mediterraneibacter gnavus
[30] = tested on: Clostridium paraputrificum; test: Antimicrobial activity against Clostridium paraputrificum by Wadsworth agar dilution method in presence of beta-lactamase inhibitor Sulbactam; type: functional
[31] = tested on: Prevotella disiens; test: Antimicrobial activity against Prevotella disiens by Wadsworth agar dilution method in presence of beta-lactamase inhibitor Sulbactam; type: functional
[32] = tested on: Bilophila wadsworthia; test: Antimicrobial activity against Bilophila wadsworthia by Wadsworth agar dilution method in presence of 1% pyruvic acid and beta-lactamase inhibitor Sulbactam; type: functional
[33] = tested on: Catenibacterium mitsuokai; test: Antimicrobial activity against Catenibacterium mitsuokai by Wadsworth agar dilution method in presence of beta-lactamase inhibitor Sulbactam; type: functional
[34] = Drug level in stool of patient with traveler's diarrhea at 800 mg, po administered daily for 3 days; type: ADME, organism-based; conditions: human, in vivo, 72 h

CC1(C)S[C@@H]2[C@H](NC(=O)[C@H](N)c3ccccc3)C(=O)N2[C@H]1C(=O)O [AMPICILLIN]
MIC [1]: 2 µg/mL | MIC50 [1]: 2 µg/mL | MIC90 [1]: 4 µg/mL | MIC [2]: 0.25 µg/mL | MIC50 [2]: 0.25 µg/mL | MIC90 [2]: 2 µg/mL | MIC [3]: 0.25 µg/mL | MIC50 [3]: 0.25 µg/mL | MIC90 [3]: 1 µg/mL | MIC50 [4]: 2 µg/mL | MIC90 [4]: 16 µg/mL | MIC [5]: 0.25 µg/mL | MIC50 [5]: 0.25 µg/mL | MIC90 [5]: 1 µg/mL | MIC [6]: 0.25 µg/mL | MIC50 [6]: 0.25 µg/mL | MIC90 [6]: 2 µg/mL | MIC [7]: 0.25 µg/mL | MIC50 [7]: 0.25 µg/mL | MIC90 [7]: 1 µg/mL | MIC [8]: 0.25 µg/mL | MIC50 [8]: 0.25 µg/mL | MIC90 [8]: 2 µg/mL | MIC [9]: 0.25 µg/mL | MIC50 [9]: 0.25 µg/mL | MIC90 [9]: 1 µg/mL | MIC [10]: 0.25 µg/mL | MIC50 [10]: 0.25 µg/mL | MIC90 [10]: 2 µg/mL | MIC [11]: 0.25 µg/mL | MIC50 [11]: 0.25 µg/mL | MIC90 [11]: 2 µg/mL | MIC [12]: 0.25 µg/mL | MIC50 [12]: 0.25 µg/mL | MIC90 [12]: 2 µg/mL | MIC50 [13]: 4 µg/mL | MIC90 [13]: 32 µg/mL | MIC [14]: 1 µg/mL | MIC50 [14]: 1 µg/mL | MIC90 [14]: 16 µg/mL | MIC50 [15]: 16 µg/mL | MIC90 [15]: 32 µg/mL | MIC [16]: 0.25 µg/mL | MIC50 [16]: 0.25 µg/mL | MIC90 [16]: 2 µg/mL | MIC [17]: 0.25 µg/mL | MIC50 [17]: 0.25 µg/mL | MIC90 [17]: 2 µg/mL | MIC [18]: 0.25 µg/mL | MIC50 [18]: 0.25 µg/mL | MIC90 [18]: 2 µg/mL | MIC50 [19]: 2 µg/mL | MIC90 [19]: 16 µg/mL | MIC [20]: 0.25 µg/mL | MIC50 [20]: 0.25 µg/mL | MIC90 [20]: 1 µg/mL | MIC [21]: 0.25 µg/mL | MIC50 [21]: 0.25 µg/mL | MIC90 [21]: 0.5 µg/mL | MIC [22]: 0.25 µg/mL | MIC50 [22]: 0.25 µg/mL | MIC90 [22]: 2 µg/mL | MIC [23]: 0.25 µg/mL | MIC50 [23]: 0.25 µg/mL | MIC90 [23]: 2 µg/mL | MIC50 [24]: 1 µg/mL | MIC90 [24]: 4 µg/mL | MIC [25]: 0.25 µg/mL | MIC50 [25]: 0.25 µg/mL | MIC90 [25]: 1 µg/mL | MIC [26]: 0.25 µg/mL | MIC50 [26]: 0.25 µg/mL | MIC90 [26]: 2 µg/mL | MIC [27]: 0.25 µg/mL | MIC50 [27]: 0.25 µg/mL | MIC90 [27]: 1 µg/mL | MIC [28]: 0.25 µg/mL | MIC50 [28]: 0.25 µg/mL | MIC90 [28]: 2 µg/mL | MIC [29]: 0.25 µg/mL | MIC50 [29]: 0.25 µg/mL | MIC90 [29]: 2 µg/mL | MIC [30]: 0.25 µg/mL | MIC50 [30]: 0.25 µg/mL | MIC90 [30]: 1 µg/mL | MIC50 [31]: 0.5 µg/mL | MIC90 [31]: 4 µg/mL | MIC50 [32]: 2 µg/mL | MIC90 [32]: 16 µg/mL | MIC [33]: 0.25 µg/mL | MIC50 [33]: 0.25 µg/mL | MIC90 [33]: 2 µg/mL

CO[C@H]1/C=C/O[C@@]2(C)Oc3c(C)c(O)c4c(O)c(c5c(nc6cc(C)ccn65)c4c3C2=O)NC(=O)/C(C)=C\C=C\[C@H](C)[C@H](O)[C@@H](C)[C@@H](O)[C@@H](C)[C@H](OC(C)=O)[C@@H]1C [RIFAXIMIN]
concentration [34]: 8000 µg/g
